Experiments:
[1] = tested on: mouse splenic MDSC; experiment: Splenic MDSC proliferation with L-fuc or 2FF; type: cell-based; conditions: FIG. 3E
[2] = tested on: SW1 tumors; experiment: Control vs. L-fucose ± FTY720 model: tumor growth and flow cytometric profiling of tumors and lymph nodes (Table 1); type: in vivo, C3H/HeN mice
Protocol: FIGS. 15A-15E Lymph node egress is necessary for L-fucose-triggered tumor suppression; L-fucose increases intratumoral CD4+T stem and central memory cells. (a) Immune subpopulations markers use to profile by flow cytometry. (b) Volumetric growth curves for SW1 tumors in C3H/HeN mice fed without (Ctl) or with L-fucose (LF) and treated with FTY720 (Ctl mice administered FTY720: (FTY); LF-supplemented mice administered FTY720: (L+F)). FTY720 was administered at 20 μg per mouse every 2 days starting on Day 12, just prior to the initiation of LF (c) Pie charts showing ratios of intratumoral or lymph node-resident CD4+ or CD8+T cell subpopulations, as well as DC subtypes from mice at Day 14, 28, and 42 (each pie chart represents 4-5 mice). Assessment of cytotoxic CD4+ T cell populations (CRTAM+) and cytotoxic CD8+ T cell populations (GrzB+) from tumors at Day 28 (d) and Day 42 (e). The tumor growth curves are means±SEM from ≥7 mice per group. *=p<0.05.
Tumors of SW1 or SM1 melanoma cells from […] or C57BL/6 mice, respectively) were digested using 1× tumor digest buffer (0.5 mg/mL Collagenase I, 0.5 mg/mL Collagenase IV, 0.25 mg/mL Hyalyronidase V, 0.1 mg/mL DNAse I in HBSS (Millipore Sigma (St. Louis, MO)). Tumors were homogenized using the Miltenyi MACs dissociator. Red blood cells were lysed using ACK lysis buffer (Life Technologies, (Grand Island, NY)). Tumor homogenate cells were counted using a standard hemocytometer.
Total TILs were gated first to single cells (based on forward scatter height vs width, followed by side scatter height vs. width). Live cells were gated from the Zombie negative population from the population above. TILs were gated based on splenocyte size from a control spleen. Individual immune subpopulations were sub-gated from the total TIL population using the following staining criteria: CD3+ for CD3+ T cells; CD3+/CD4+/CD8− for CD4+T cells; CD3+/CD4−/CD8+ for CD8+ T cells, CD11c+/CD11b+ for DCs; either NK1.1 (for C57/BL6 mice) or DX5 (for C3H/HeJ) for NK cells; CD11b+/GR1+ for MDSC-like cells; and F4/80+ for macrophages. Single-cell suspensions from tumor and spleen tissue were stained with Live/Dead Zombie NIR (Biolegend, (San Diego, CA)) at 1:1,000 in PBS for 20 min. Cell suspensions were spun down and stained with the following with antibodies at 0.5 μg/ml per antibody: APC anti-mouse CD3, Pacific Blue anti-mouse CD4, BV785 anti-mouse CD8, PerCP anti-mouse CD25, FITC anti-mouse F4/80, PeCy7 anti-mouse CD11c, PE anti-mouse NK1.1 or PE anti-mouse DX5, and PerCP-Cy5.5 anti-mouse CD11 b. After staining, the cells were washed and fixed (2% formaldehyde), followed by another wash and flow cytometric analysis. The compensation controls were prepared using 0.5 μg/mL of each antibody with UltraComp eBeads, (ThermoFisher Scientific (Waltham, MA)). All samples were subject to flow cytometric profiling using a LSR Flow Cytometer (BD Biosciences (San Jose, CA)) and analysis as indicated using FlowJo software (BD Biosciences (San Jose, CA)).
SW1 or SM1 mouse melanoma cells were injected into syngeneic C3H/HeN (or NSG) female or C57BL/6 male mice, respectively. Cells were injected as follows: parental SW1 cells for FIG. 13A; parental SM1 cells for FIG. 13E; SW1 cells stably expressing either empty vector (EV) or mouse fucose kinase (mFuk) for FIG. 1L; and parental SW1 cells for FIG. 13M. FTY720 was administered at 20 μg every 2 days starting on Day 12, just prior to the initiation of LF, until endpoint.

[3] = tested on: BM-derived MDSCs; experiment: NO production of BM-derived MDSCs (Greiss assay); type: cell-based, Balb/C mice; conditions: 250 uM L-fuc prior, during and/or after GM/G-CSF stimulation
Protocol: Tlhe myeloid cells, which were stimulated to imlmuno, suppressive MDSCs using GM/G-CSF, were divided into 3 treatment groups: (i) Treatment±250 uM L-fuc prior, duri ng, and after GM/G-CSF stimulation. Treatment±250 uM L-fuc during and after GM/G-CSF stimulation. (ii) Treatment±250 uM L-fuc only after GM/G-CSF stimulation. Greiss assay timepoints reier to hours after initial dose of L-fuc regardless of when cells were treated, L-fuc abrogated their ability to glenerate NO. […] We subsequently co-cultured the modulated MDSCs wilh T cells, which were then activated or not with CD3/CD28 beads and measured for IFNψ production. *. p •<0.05

[4] = tested on: TUBO (mouse BC); experiment: TUBO breast cancer growth and TILs in immunocompetent mice, L-fuc dose escalation; type: in vivo, Balb/C mice; conditions: for TUBO tumor growth: immunocompetent Balb/C mice, L-fuc dose escalation (FIG. 3B)

`C[C@H](O)[C@@H](O)[C@@H](O)[C@H](O)C=O` [L-fucose] was tested, and the “MDSC proliferation / MDSC populations” value [1] was “increased”, the “MDSC proliferation / MDSC populations” value ([1]; listed as L-fuc) was “increases” and the “cytotoxic CD4+T cells (CRTAM+)” value ([2]; Day 28) was “transiently but significantly increased”. The “CD4 central memory, average # of cells” value ([2]; Day 28, lymph nodes) was 2289.20 per 10^6 cells of total tumor, the “CD4 effector memory, average # of cells” value ([2]; Day 28, lymph nodes) was 445.15 per 10^6 cells of total tumor and the “CD4 naïve, average # of cells” value ([2]; Day 28, lymph nodes) was 9286.89 per 10^6 cells of total tumor. The “CD4 stem central memory, average # of cells” value (“CD4 stem central memory” for short) ([2]; Day 28, lymph nodes) was 53601.81 per 10^6 cells of total tumor, the “CD8 central memory, average # of cells” value ([2]; Day 28, lymph nodes) was 295.92 per 10^6 cells of total tumor and the “CD8 effector memory, average # of cells” value ([2]; Day 28, lymph nodes) was 888.80 per 10^6 cells of total tumor. For the same molecule, the “CD8 naïve, average # of cells” value ([2]; Day 28, lymph nodes) was 18072.26 per 10^6 cells of total tumor, the “CD8 stem central memory, average # of cells” value (shortened to “CD8 stem central memory”) ([2]; Day 28, lymph nodes) was 980.96 per 10^6 cells of total tumor and the “cDC1, average # of cells” value ([2]; Day 28, lymph nodes) was 359.10 per 10^6 cells of total tumor. For the same molecule, the “cDC2, average # of cells” value ([2]; Day 28, lymph nodes) was 743.69 per 10^6 cells of total tumor, the “moDC, average # of cells” value ([2]; Day 28, lymph nodes) was 37.66 per 10^6 cells of total tumor and the “CD4 central memory, average # of cells” value ([2]; Day 28, tumors) was 6.04 per 10^6 cells of total tumor. For the same molecule, the “CD4 effector memory, average # of cells” value ([2]; Day 28, tumors) was 568.19 per 10^6 cells of total tumor, the “CD4 naïve, average # of cells” value ([2]; Day 28, tumors) was 30.44 per 10^6 cells of total tumor and the “CD4 stem central memory” value ([2]; Day 28, tumors) was 5.59 per 10^6 cells of total tumor. For the same molecule, the “CD8 central memory, average # of cells” value ([2]; Day 28, tumors) was 1.24 per 10^6 cells of total tumor, the “CD8 effector memory, average # of cells” value ([2]; Day 28, tumors) was 108.29 per 10^6 cells of total tumor and the “CD8 naïve, average # of cells” value ([2]; Day 28, tumors) was 34.60 per 10^6 cells of total tumor. The “CD8 stem central memory” value ([2]; Day 28, tumors) was 0.00 per 10^6 cells of total tumor, the “cDC1, average # of cells” value ([2]; Day 28, tumors) was 2301.44 per 10^6 cells of total tumor and the “cDC2, average # of cells” value ([2]; Day 28, tumors) was 10732.04 per 10^6 cells of total tumor. The “moDC, average # of cells” value ([2]; Day 28, tumors) was 20903.90 per 10^6 cells of total tumor, the “CD4 central memory, average # of cells” value ([2]; Day 42, lymph nodes) was 1741.12 per 10^6 cells of total tumor and the “CD4 effector memory, average # of cells” value ([2]; Day 42, lymph nodes) was 5032.79 per 10^6 cells of total tumor. For the same molecule, the “CD4 naïve, average # of cells” value ([2]; Day 42, lymph nodes) was 105779.76 per 10^6 cells of total tumor, the “CD4 stem central memory” value ([2]; Day 42, lymph nodes) was 1587.46 per 10^6 cells of total tumor and the “CD8 central memory, average # of cells” value ([2]; Day 42, lymph nodes) was 1741.12 per 10^6 cells of total tumor. The “CD8 effector memory, average # of cells” value ([2]; Day 42, lymph nodes) was 5032.79 per 10^6 cells of total tumor, the “CD8 naïve, average # of cells” value ([2]; Day 42, lymph nodes) was 105779.76 per 10^6 cells of total tumor and the “CD8 stem central memory” value ([2]; Day 42, lymph nodes) was 1587.46 per 10^6 cells of total tumor. For the same molecule, the “cDC1, average # of cells” value ([2]; Day 42, lymph nodes) was 2141.34 per 10^6 cells of total tumor, the “cDC2, average # of cells” value ([2]; Day 42, lymph nodes) was 4375.69 per 10^6 cells of total tumor and the “moDC, average # of cells” value ([2]; Day 42, lymph nodes) was 1201.44 per 10^6 cells of total tumor. The “CD4 central memory, average # of cells” value ([2]; Day 42, tumors) was 38.18 per 10^6 cells of total tumor, the “CD4 effector memory, average # of cells” value ([2]; Day 42, tumors) was 111.09 per 10^6 cells of total tumor and the “CD4 naïve, average # of cells” value ([2]; Day 42, tumors) was 82.01 per 10^6 cells of total tumor. The “CD4 stem central memory” value ([2]; Day 42, tumors) was 16.67 per 10^6 cells of total tumor, the “CD8 central memory, average # of cells” value ([2]; Day 42, tumors) was 13.46 per 10^6 cells of total tumor and the “CD8 effector memory, average # of cells” value ([2]; Day 42, tumors) was 246.44 per 10^6 cells of total tumor. The “CD8 naïve, average # of cells” value ([2]; Day 42, tumors) was 109.29 per 10^6 cells of total tumor, the “CD8 stem central memory” value ([2]; Day 42, tumors) was 0.00 per 10^6 cells of total tumor and the “cDC1, average # of cells” value ([2]; Day 42, tumors) was 648.96 per 10^6 cells of total tumor. For the same molecule, the “cDC2, average # of cells” value ([2]; Day 42, tumors) was 78.44 per 10^6 cells of total tumor, the “moDC, average # of cells” value ([2]; Day 42, tumors) was 169.08 per 10^6 cells of total tumor and the “intratumoral CD4+T central and effector memory subpopulations” value ([2]; FIG. 15c) was “increases”. The “intratumoral monocyte-derived DCs (moDCs)” value ([2]; FIG. 15c) was “significantly increased”, the “lymph node cDC2s” value ([2]; FIG. 15c) was “significantly increased” and the L-fuc-triggered tumor suppression ([2]; with FTY720 (inhibition of lymph node egress)) was “completely abrogated”. For the same molecule, the NO production [3] was “abrogated”, the “fold-change in TIL subsets: MDSCs” value ([4]; 500 vs. 0 mM L-fuc, TUBO tumors (FIG. 3D)) was 3.1 fold and the “number of TILs/g tumor” value ([4]; FIG. 3C) was “increased”. The “fold increase in TIL subsets: CD4 T cells” value ([4]; following L-fucose administration (FIG. 3D)) was 3.1 fold, the TUBO tumor growth [4] was “dose dependent decrease” and the TUBO tumor growth ([4]; listed as L-fuc) was “suppresses”.
